Ends that are not written are not given here. Peptide text beside a SMILES is read from it.

In one assay the target is ACE-I enzyme (Homo sapiens, UniProt P12821). Nature of the assay: ACE-I activity in vitro using FAPGG as substrate. The following applies: peptides purified by reverse-phase HPLC from 10 kDa UF permeate of Example 1 hydrolysate. The class given is biochemical. The protocol:
ACE-I activity (in vitro) in the dried product was determined using FAPGG as a substrate (Product 305–10 ex Sigma Chemical Corporation, St Louis, Mo., USA) according of the method of D W Cushman & H S Cheung (1971). ACE-I activities are expressed as the amount of material (mg/L) needed to reduce the activity of the ACE-I enzyme by 50%.

Assay [1] relates to Spontaneously hypertensive rats (SHRs). The assay can be described thus: Acute short term effect on systolic blood pressure (tail cuff). The format is in vivo, rat. Particulars: 165 mg/kg body weight, oral in jelly, p=0.0021 after 4 hours, p<0.0001 after 8 hours. The protocol: Blood pressure was measured using a tail cuff monitor and a purpose designed apparatus for measuring the blood pressure of small animals [IITC Inc, 239 Victory Blvd., Woodland Hills, Calif. 91367, USA]. Each time point was the average of 3–5 readings taken within approximately 5–10 minutes.
Spontaneously hypertensive rats (SHRs) were sourced from the Animal Resource Centre, Western Australia.
The test substances were given to each rat on a per kg body weight basis unless otherwise stated. The individual dose for each animal was incorporated into a flavoured jelly, which was readily consumed by the animals.
The three samples evaluated for short tern blood pressure response were a mildly hydrolysed whey protein concentrate (FIG. 2), a mildly hydrolysed whey protein isolate (see FIG. 3) and a synthesised peptide from. Table 1, namely MKG (SEQ ID NO: 2) (see FIG. 4). The WPC was prepared according to the methodology set out in example 1 of WO 99/65326.
Acute or short term effects of agents were determined by treating adult SHRs with the agent and then studying their blood pressure responses over the following hours. The study detects if an agent lowers blood pressure that is already elevated.

ACE-I enzyme, sequence (P12821 30-1306): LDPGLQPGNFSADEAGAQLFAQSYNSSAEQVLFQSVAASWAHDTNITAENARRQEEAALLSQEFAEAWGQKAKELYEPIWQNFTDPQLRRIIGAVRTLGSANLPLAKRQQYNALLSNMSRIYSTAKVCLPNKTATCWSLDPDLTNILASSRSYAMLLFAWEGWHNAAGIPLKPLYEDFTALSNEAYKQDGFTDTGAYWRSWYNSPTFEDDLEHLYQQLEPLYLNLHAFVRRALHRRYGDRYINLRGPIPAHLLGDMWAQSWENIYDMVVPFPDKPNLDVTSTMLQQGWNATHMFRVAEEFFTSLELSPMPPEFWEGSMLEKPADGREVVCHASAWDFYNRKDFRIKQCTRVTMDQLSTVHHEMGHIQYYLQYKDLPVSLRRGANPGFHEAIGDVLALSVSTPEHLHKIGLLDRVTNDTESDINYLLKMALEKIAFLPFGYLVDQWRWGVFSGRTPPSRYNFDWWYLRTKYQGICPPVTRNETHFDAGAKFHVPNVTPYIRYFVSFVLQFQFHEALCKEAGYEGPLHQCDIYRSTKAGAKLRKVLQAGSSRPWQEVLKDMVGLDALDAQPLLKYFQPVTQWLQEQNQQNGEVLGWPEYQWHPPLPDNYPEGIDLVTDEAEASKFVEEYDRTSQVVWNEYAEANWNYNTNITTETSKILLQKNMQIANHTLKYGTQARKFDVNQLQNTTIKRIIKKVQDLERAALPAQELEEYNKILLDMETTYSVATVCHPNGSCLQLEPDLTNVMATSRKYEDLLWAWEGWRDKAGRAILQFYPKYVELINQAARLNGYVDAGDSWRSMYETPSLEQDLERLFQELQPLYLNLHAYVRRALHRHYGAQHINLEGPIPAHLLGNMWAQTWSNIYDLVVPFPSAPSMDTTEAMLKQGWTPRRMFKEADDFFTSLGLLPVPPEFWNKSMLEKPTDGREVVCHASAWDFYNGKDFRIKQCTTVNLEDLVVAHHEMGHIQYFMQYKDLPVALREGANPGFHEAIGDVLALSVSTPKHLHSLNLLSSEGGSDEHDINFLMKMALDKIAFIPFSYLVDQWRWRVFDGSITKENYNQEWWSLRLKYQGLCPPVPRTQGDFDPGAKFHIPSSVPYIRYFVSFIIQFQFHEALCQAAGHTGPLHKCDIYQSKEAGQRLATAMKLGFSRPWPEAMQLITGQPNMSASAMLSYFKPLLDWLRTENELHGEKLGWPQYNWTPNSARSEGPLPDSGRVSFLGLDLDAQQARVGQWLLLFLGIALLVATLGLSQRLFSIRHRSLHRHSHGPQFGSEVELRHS

As for `C[C@H](NC(=O)[C@@H](N)CO)C(=O)N1CCC[C@H]1C(=O)O` [Peptide 1, SAP] (H-Ser-Ala-Pro-OH; N-terminus and C-terminus assumed), on ACE-I enzyme, the IC50 (in general, the concentration at which inhibition is half-maximal) is 80.5 µM.
On to `CSCC[C@H](N)C(=O)N[C@@H](CCCCN)C(=O)NCC(=O)O` [Peptide 2, MKG] (H-Met-Lys-Gly-OH; N-terminus and C-terminus assumed), for which, at ACE-I enzyme, the IC50 was 68.8 µM. In assay [1], the “Reduction in systolic blood pressure compared to control rats” value is on record as “much greater reduction in blood pressure”.
ALPMH [Peptide 3, ALPMH] gave an IC50 against ACE-I enzyme of 40.5 µM.
Still for that read-out and setting: in the case of LIVTQ [Peptide 4, LIVTQ] it was 33.2 µM.
Same read-out and setting: in the case of LKGYGGVSLPEW [Peptide 7] it was 5.36 µM; in that of VSLPEW [Peptide 5, VSLPEW], 11 µM.

Values taken from US7148034B2, “Bioactive whey protein hydrolysate” (New Zealand Dairy Board, priority 2001, dated 2006).
